# Test results published in patent publication US12624018B1, “Inhibitors of RIPK2 and medical uses thereof” (Odyssey Therapeutics, Inc., priority 2022, dated 2026).
# Target: T1, RIPK2 enzyme (Homo sapiens, UniProt O43353)
# T1 construct: purchased Carna 09-128
# Experiment: RIPK2 inhibition (ADP-Glo Kinase Assay)
# Type: biochemical
# Settings: RIPK2 5 nM, ATP 150 μM, MBP substrate, read-out: RIPK2 IC50
# Outline: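 Swine MBP substrate; compound and 5 nM RIPK2 first mixed for 30 min at room temperature; buffer pH 7.5 HEPES 50 mM with 10 mM MgCl2, 2 mM DTT, 1 mM EGTA, Brij-35, BSA.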
# T1 sequence (O43353 1-299 limits assumed): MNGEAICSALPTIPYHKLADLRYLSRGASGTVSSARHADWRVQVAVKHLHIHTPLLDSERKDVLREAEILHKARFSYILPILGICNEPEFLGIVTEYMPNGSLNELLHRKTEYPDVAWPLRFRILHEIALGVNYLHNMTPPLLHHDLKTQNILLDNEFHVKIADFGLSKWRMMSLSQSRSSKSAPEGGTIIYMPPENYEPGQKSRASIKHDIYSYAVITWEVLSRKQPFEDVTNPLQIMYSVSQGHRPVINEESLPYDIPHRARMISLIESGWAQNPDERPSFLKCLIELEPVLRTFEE
row,SMILES,IC50
1,"CN1[C@@H]2CC[C@H]1C[C@@H](Oc1ccc3ncnc(Oc4cnc(CC(=O)Nc5cnn(C(C)(C)C)c5)c(F)c4)c3c1)C2 [Compound 62, N-(1-(tert-butyl)-1H-pyrazol-4-yl)-2-(3-fluoro-5-((6-(((1R,3r,5S)-8-methyl-8-azabicyclo [3.2.1]octan-3-yl)oxy)quinazolin-4-yl)oxy)pyridin-2-yl)acetamide]",13.2 nM
2,"Cc1cc(CC(=O)Nc2cnn(C(C)(C)C)c2)ccc1Oc1ccnc2ccc(O[C@H]3C[C@H](N)C3)cc12 [Compound 124, 2-(4-((6-((1r,3r)-3-aminocyclo-butoxy)quinolin-4-yl)oxy)-3-methyl-phenyl)-N-(1-(tert-butyl)-1H-pyrazol-4-yl)acetamide]",< 2.5 nM
3,"CC(C)(C)n1cc(NC(=O)Cc2ccc(Oc3ccnc4ccc(N5CCCCC5=O)cc34)cc2F)cn1 [Compound 153, N-(1-(tert-butyl)-1H-pyrazol-4-yl)-2-(2-fluoro-4-((6-(2-oxopiperidin-1-yl)quinolin-4-yl)oxy)phenyl) acetamide]",2.7 nM
4,"Cc1c(Oc2ccnc3ccc(S(=O)(=O)N(C)C)cc23)ccc(CC(=O)Nc2cnn(C(C)(C)C)c2)c1F [Compound 269, N-(1-(tert-butyl)-1H-pyrazol-4-yl)-2-(4-((6-(N,N-dimethylsulfamoyl)quinolin-4-yl)oxy)-2-fluoro-3-methylphenyl)acetamide]",< 2.5 nM
5,"Cc1cc(CC(=O)Nc2cnn(C(C)(C)C)c2)ccc1Oc1ccnc2ccc(S(=O)(=O)CC3CCOC3)cc12 (single isomer, unassigned) [Compound 242, N-(1-(tert-butyl)-1H-pyrazol-4-yl)-2-(3-methyl-4-((6-(((tetrahydrofuran-3-yl)methyl)sulfonyl)quinolin-4-yl)oxy)phenyl)acetamide]",< 2.5 nM
6,"Cc1c(Oc2ccnc3ccc(N4CCCS4(=O)=O)cc23)ccc(CC(=O)Nc2cnn(C(C)(C)C)c2)c1F [Compound 279, N-(1-(tert-butyl)-1H-pyrazol-4-yl)-2-(4-((6-(1,1-dioxidoisothiazolidin-2-yl)quinolin-4-yl)oxy)-2-fluoro-3-methylphenyl) acetamide]",< 2.5 nM
7,Cc1cc(CC(=O)Nc2cnn(C(C)(C)C)c2)ccc1Oc1ccnc2ccc(OC3CCNCC3C)cc12 (racemic) [Compound 187],< 2.5 nM

# Further lines, results first:
row,IC50,SMILES
1,< 2.5 nM,"Cc1c(Oc2ccnc3ccc(S(=O)(=O)C4CCNCC4)cc23)ccc(CC(=O)Nc2cnn(C(C)(C)C)c2)c1F [Compound 312, N-(1-(tert-butyl)-1H-pyrazol-4-yl)-2-(2-fluoro-3-methyl-4-((6-(piperidin-4-ylsulfonyl)quinolin-4-yl)oxy)phenyl)acetamide]"
2,< 2.5 nM,"Cc1cc(CC(=O)Nc2cnn(C(C)(C)C)c2)ccc1Oc1ccnc2ccc(N3CCC(F)(F)C3=O)cc12 [Compound 325, N-(1-(tert-butyl)-1H-pyrazol-4-yl)-2-(4-((6-(3,3-difluoro-2-oxopyrrolidin-1-yl)quinolin-4-yl)oxy)-3-methylphenyl) acetamide]"
3,< 2.5 nM,"Cc1cc(CC(=O)Nc2cnn(C(C)(C)C)c2)c(F)cc1Oc1ccnc2ccc(C(=O)NC(C)C)cc12 [Compound 455, 4-(4-(2-((1-(tert-butyl)-1H-pyrazol-4-yl)amino)-2-oxoethyl)-5-fluoro-2-methylphenoxy)-N-isopropylquinoline-6-carboxamide]"
4,< 2.5 nM,"CSc1ccc2nccc(Oc3cc(F)c(CC(=O)Nc4cnn(C(C)(C)C)c4)cc3C)c2c1 [Compound 459, N-(1-(tert-butyl)-1H-pyrazol-4-yl)-2-(2-fluoro-5-methyl-4-((6-(methylthio)quinolin-4-yl)oxy)phenyl)acetamide]"
5,< 2.5 nM,"Cc1cc(CC(=O)Nc2cc(C(C)(C)CO)n[nH]2)ccc1Oc1ccnc2ccc(S(C)(=O)=O)cc12 [Compound 328, N-(5-(1-hydroxy-2-methylpropan-2-yl)-1H-pyrazol-3-yl)-2-(3-methyl-4-((6-(methylsulfonyl)quinolin-4-yl)oxy)phenyl)acetamide]"
